What all share (format): biochemical
The target in assay [1] is T1, recombinant human MAO-A (monoamine oxidase-A) (Homo sapiens, UniProt P21397).
T1 construct: purchased Sigma-Aldrich
T1 sequence (P21397 1-527): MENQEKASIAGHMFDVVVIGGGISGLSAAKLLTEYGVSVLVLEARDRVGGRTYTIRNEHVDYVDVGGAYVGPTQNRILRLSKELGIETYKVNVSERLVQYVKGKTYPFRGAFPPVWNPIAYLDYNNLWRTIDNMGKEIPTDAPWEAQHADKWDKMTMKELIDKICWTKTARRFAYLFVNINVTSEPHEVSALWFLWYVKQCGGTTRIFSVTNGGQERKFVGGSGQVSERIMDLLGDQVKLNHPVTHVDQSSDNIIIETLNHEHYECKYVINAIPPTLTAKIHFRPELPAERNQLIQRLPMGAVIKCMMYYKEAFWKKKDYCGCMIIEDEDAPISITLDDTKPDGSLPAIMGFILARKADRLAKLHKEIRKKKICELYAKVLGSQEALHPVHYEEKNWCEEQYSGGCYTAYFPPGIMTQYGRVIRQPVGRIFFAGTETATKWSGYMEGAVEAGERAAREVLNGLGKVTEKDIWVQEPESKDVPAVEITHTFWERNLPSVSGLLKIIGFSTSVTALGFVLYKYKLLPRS
In words: Activity on recombinant human MAO-A, Amplex Red method, 0.5 mM tyramine substrate. The conditions noted are these: read-out: Inhibitory Activity (IC50, nM) MAO-A. A digest of the protocol:
(§1)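 8-point, 1:3 dose-response, four-parameter logistic IC50 from reduction in fluorescence rate versus DMSO control. HRP/Amplex Red detection of H2O2 (ex 544, em 590 nm) after 30 min, 37 °C compound–enzyme preincubation in pH 7.4 phosphate buffer. MAO-A substrate: 0.5 mM tyramine; MAO-B: 1 mM benzylamine.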

For assay [2], the target named is T2, recombinant human DAO (diamine oxidase) (Homo sapiens, UniProt P19801).
T2 construct: purchased R&D systems
T2 sequence (P19801 20-751): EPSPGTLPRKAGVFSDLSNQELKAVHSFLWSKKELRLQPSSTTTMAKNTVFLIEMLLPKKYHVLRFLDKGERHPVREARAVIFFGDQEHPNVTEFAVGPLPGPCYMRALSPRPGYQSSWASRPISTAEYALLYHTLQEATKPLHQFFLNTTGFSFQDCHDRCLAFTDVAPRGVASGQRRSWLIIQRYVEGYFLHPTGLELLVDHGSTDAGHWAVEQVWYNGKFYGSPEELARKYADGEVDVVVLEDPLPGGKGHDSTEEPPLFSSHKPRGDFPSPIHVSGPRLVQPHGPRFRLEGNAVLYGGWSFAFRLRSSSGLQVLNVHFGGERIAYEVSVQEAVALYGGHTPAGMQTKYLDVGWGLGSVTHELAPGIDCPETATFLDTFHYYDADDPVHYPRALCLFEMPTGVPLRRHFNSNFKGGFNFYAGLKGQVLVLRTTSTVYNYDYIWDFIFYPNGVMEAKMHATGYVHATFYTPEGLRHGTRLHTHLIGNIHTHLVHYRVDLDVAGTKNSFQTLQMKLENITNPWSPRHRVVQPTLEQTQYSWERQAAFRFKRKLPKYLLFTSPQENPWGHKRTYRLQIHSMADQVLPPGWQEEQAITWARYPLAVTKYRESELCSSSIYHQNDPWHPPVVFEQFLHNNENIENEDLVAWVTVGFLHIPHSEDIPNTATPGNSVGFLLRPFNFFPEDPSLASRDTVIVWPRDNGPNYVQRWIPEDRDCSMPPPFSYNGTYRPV
In words: Activity on recombinant human DAO, Amplex Red method, 1 mM putrescine substrate. Conditions: recombinant human DAO, read-out: Inhibitory Activity (IC50, nM) DAO. A digest of the protocol:
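Inhibition of recombinant human DAO (diamine oxidase, R&D systems) was assessed with the Amplex Red Hydrogen Peroxide Assay Kit. Hydrogen peroxide produced from 1 mM putrescine was detected through an HRP-coupled reaction that converts Amplex Red into fluorescent resorufin, read at 544 nm excitation and 590 nm emission. IC50 values came from four-parameter logistic fits in GraphPad Prism.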

Assay [3] concerns the target T3, recombinant human MAO-B (monoamine oxidase-B) (Homo sapiens, UniProt P27338).
T3 construct: purchased Sigma-Aldrich
T3 sequence (P27338 1-520): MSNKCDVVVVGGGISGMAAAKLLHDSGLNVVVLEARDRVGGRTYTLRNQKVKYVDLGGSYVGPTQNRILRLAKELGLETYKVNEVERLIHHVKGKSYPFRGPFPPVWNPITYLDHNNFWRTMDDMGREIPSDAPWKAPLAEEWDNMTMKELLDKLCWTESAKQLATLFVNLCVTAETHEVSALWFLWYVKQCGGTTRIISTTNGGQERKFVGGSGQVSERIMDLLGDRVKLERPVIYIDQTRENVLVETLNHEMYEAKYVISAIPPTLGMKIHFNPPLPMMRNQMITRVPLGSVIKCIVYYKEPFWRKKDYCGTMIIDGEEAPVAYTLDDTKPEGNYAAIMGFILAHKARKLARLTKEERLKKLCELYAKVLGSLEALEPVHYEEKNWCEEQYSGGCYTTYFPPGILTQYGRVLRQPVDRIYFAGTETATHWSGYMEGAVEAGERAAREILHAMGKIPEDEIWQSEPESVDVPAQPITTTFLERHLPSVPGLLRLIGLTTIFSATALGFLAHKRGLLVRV
In words: Activity on recombinant human MAO-B, Amplex Red method, 1 mM benzylamine substrate. Conditions: read-out: Inhibitory Activity (IC50, nM) MAO-B. A digest of the protocol: as §1

A further assay addresses T4, recombinant human VAP-1 (Homo sapiens, UniProt Q16853).
T4 construct: purchased R&D systems
T4 sequence (Q16853 1-763): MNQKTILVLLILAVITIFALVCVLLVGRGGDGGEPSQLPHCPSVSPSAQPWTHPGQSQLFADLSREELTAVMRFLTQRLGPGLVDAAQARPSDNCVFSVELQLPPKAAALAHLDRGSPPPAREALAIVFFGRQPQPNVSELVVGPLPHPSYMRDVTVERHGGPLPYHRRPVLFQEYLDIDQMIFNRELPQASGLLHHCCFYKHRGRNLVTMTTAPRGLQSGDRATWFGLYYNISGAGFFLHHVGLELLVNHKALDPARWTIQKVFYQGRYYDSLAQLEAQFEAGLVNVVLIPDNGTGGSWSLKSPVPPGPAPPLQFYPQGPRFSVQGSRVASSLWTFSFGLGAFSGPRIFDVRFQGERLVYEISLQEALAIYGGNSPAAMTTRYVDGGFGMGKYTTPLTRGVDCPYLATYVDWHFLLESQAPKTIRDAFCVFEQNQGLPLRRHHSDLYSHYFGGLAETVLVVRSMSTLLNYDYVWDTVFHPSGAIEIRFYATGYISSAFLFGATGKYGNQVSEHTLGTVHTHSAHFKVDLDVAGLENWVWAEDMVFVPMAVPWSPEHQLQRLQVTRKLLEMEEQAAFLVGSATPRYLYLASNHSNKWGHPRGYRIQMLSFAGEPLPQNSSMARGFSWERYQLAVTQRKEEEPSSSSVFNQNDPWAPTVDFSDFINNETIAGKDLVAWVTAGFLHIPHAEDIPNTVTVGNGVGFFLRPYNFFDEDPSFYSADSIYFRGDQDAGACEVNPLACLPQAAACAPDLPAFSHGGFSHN
The assay is described as follows: Activity on recombinant human VAP-1, Amplex Red HRP-coupled hydrogen peroxide assay, benzylamine substrate. Conditions: recombinant human VAP-1, benzylamine substrate, read-out: Inhibitory Activity (IC50, nM) human VAP-1. Summed up: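 Compounds were preincubated with purified enzyme in 50 mM sodium phosphate pH 7.4 at 37 °C for 30 min, then 200 uM Amplex Red, 1 mM benzylamine and 1 U/mL HRP were added. Resorufin fluorescence (ex 544/em 590 nm) was followed over 1-2 h; IC50 came from 4-parameter fits of signal-rate inhibition.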

[4] abbreviates: 1 mM putrescine, * = between 10 and 100 nM, ** = between 300 and 1000 nM.

Structures can show the parent of a compound that is named as a salt. Where two headings read alike, the source gives them in different places. Where only a bound is given, the exact number is not on record here.

Broadly, the IC50 is the midpoint of a concentration-inhibition curve. Consider `CC(=O)Nc1ccc(-c2cccc(-n3cnn(C/C(=C\F)CN)c3=O)c2)cc1` [Example 56, N-(3′-{1-[(2Z)-2-(aminomethyl)-3-fluoroprop-2-en-1-yl]-5-oxo-1,5-dihydro-4H-1,2,4-triazol-4-yl}biphenyl-4-yl)acetamide hydrochloride], for which the IC50 in assay [1] (0.5 mM tyramine) was 5100 nM; in assay [2] (setting [4]), 110 nM; in assay [3] (1 mM benzylamine), greater than 10000 nM; on recombinant human VAP-1 (30 min preincubation at 37° C.), 0.75 nM.
On the same counts, the results for `NC/C(=C\F)Cn1ncn(-c2cccc(-c3ccc(-c4noc(C5CC5)n4)cc3)c2)c1=O` [Example 63, 2-[(2E)-2-(aminomethyl)-3-fluoroprop-2-en-1-yl]-4-[4′-(5-cyclopropyl-1,2,4-oxadiazol-3-yl)biphenyl-3-yl]-2,4-dihydro-3H-1,2,4-triazol-3-one hydrochloride] are greater than 100000 nM, less than 30 nM, greater than 10000 nM and 1 nM.
On the same counts, the results for `Cc1c(-c2ccc(S(C)(=O)=O)cc2)cccc1-n1cnn(C/C(=C/F)CN)c1=O` [Example 106, 2-[(2E)-2-(aminomethyl)-3-fluoroprop-2-en-1-yl]-4-[2-methyl-4′-(methylsulfonyl)biphenyl-3-yl]-2,4-dihydro-3H-1,2,4-triazol-3-one] are greater than 100000 nM, 310 nM, greater than 10000 nM and 4.7 nM.
In the case of `Cc1cc(-c2cc(C)c3c(c2)CCC(=O)N3)cnc1-n1cnn(C/C(=C/F)CN)c1=O` [Example 154, 6-(6-{1-[(2E)-2-(aminomethyl)-3-fluoroprop-2-en-1-yl]-5-oxo-1,5-dihydro-4H-1,2,4-triazol-4-yl}-5-methylpyridin-3-yl)-8-methyl-3,4-dihydroquinolin-2(1H)-one hydrochloride], the IC50 in assay [1] (0.5 mM tyramine substrate) was greater than 100000 nM; in assay [2] (1 mM putrescine substrate), 190 nM; in assay [3] (1 mM benzylamine substrate) it was 3000 nM; on recombinant human VAP-1, 0.3 nM.
Consider `NC/C(=C\F)Cn1ncn(-c2ccc(OCc3ccccc3)cc2)c1=O` [Example 8, 2-[(2E)-2-(aminomethyl)-3-fluoroprop-2-en-1-yl]-4-[4-(benzyloxy)phenyl]-2,4-dihydro-3H-1,2,4-triazol-3-one hydrochloride], for which the IC50 in assay [1] (0.5 mM tyramine) was 54000 nM; in assay [2] (setting [4]), 38 nM; in assay [3] (1 mM benzylamine), 10 nM; at recombinant human VAP-1 (30 min preincubation at 37° C.), 0.6 nM.
For the molecule `Cc1cc(-c2ccc(N3CCOCC3)nc2)ncc1-n1cnn(C/C(=C/F)CN)c1=O` [Example 124, 2-[(2E)-2-(aminomethyl)-3-fluoroprop-2-en-1-yl]-4-[4-methyl-6′-(morpholin-4-yl)-2,3′-bipyridin-5-yl]-2,4-dihydro-3H-1,2,4-triazol-3-one], the IC50 is greater than 100000 nM in assay [1] (0.5 mM tyramine), less than 100 nM in assay [2] (setting [4]), greater than 10000 nM in assay [3] (1 mM benzylamine) and 0.89 nM on recombinant human VAP-1 (30 min preincubation at 37° C.).
On the same counts, the results for `NC/C(=C\F)Cn1ncn(-c2cccc(-c3ccc4nonc4c3)c2)c1=O` [Example 96, 2-[(2E)-2-(aminomethyl)-3-fluoroprop-2-en-1-yl]-4-[3-(2,1,3-benzooxadiazol-5-yl)phenyl]-2,4-dihydro-3H-1,2,4-triazol-3-one hydrochloride] are greater than 100000 nM, less than 100 nM, 390 nM and 0.51 nM.
On the same counts, the results for `Cc1cc(-n2cnn(C/C(=C/F)CN)c2=O)cnc1-c1ccc2sc(N)nc2c1` [Example 118, 4-[6-(2-amino-1,3-benzothiazol-5-yl)-5-methylpyridin-3-yl]-2-[(2E)-2-(aminomethyl)-3-fluoroprop-2-en-1-yl]-2,4-dihydro-3H-1,2,4-triazol-3-one hydrochloride] are greater than 100000 nM, 1.7 nM, 3040 nM and 0.34 nM.
On the same counts, the results for `Cc1cc(-c2ccc(S(C)(=O)=O)cc2)cnc1-n1cnn(C/C(=C/F)CN)c1=O` [Example 133, 2-[(2E)-2-(aminomethyl)-3-fluoroprop-2-en-1-yl]-4-{3-methyl-5-[4-(methylsulfonyl)phenyl]pyridin-2-yl}-2,4-dihydro-3H-1,2,4-triazol-3-one hydrochloride] are greater than 100000 nM, 220 nM, greater than 10000 nM and 0.84 nM.
As for `NC/C(=C\F)Cn1ncn(-c2cccc(-c3ccc(N4CCNCC4)cc3)n2)c1=O` [Example 184, 2-[(2E)-2-(aminomethyl)-3-fluoroprop-2-en-1-yl]-4-{6-[4-(piperazin-1-yl)phenyl]pyridin-2-yl}-2,4-dihydro-3H-1,2,4-triazol-3-one hydrochloride], the IC50 was 14000 nM in assay [1] (0.5 mM tyramine substrate), 110 nM in assay [2] (1 mM putrescine substrate), greater than 10000 nM in assay [3] (1 mM benzylamine substrate) and 1.4 nM on recombinant human VAP-1.
